Values joined by “and” are separate entries in the source; they are usually repeats but may differ in a detail not shown here. Equal values may be shown once. Read-outs that look alike come from different tables or passages of the source.
Legend:
[1] = Charge class Q, dominant calculated charge state at pH 7.4; format: physicochemical
[2] = In combo PAMPA-BBB model, calculated log Po in situ
[3] = PAMPA; for Pm^7.4: pH 7.4
[4] = physchem
[5] = PAMPA; for Pm^7.4: pH 7.4; remark: listed apart in the source
[6] = dominant calculated concentration fraction of the drug in a charge state
[7] = difference observed minus calculated, external set, no efflux inhibition

## CN(C)CCC=C1c2ccccc2CCc2ccccc21 [Amitriptyline]
[1]; [6]
  Q (charge class): +
[2]; efflux inhibition mdr1a(−/−)
  obs–calc (log Po^in situ): 0.1
[2]; no efflux inhibition
  obs–calc (log Po^in situ): −0.3 and −0.2
[3]
  log Po: −1.27
  log Ppara: −6.38
  Pm^7.4: 435

## Clc1ccc2c(c1)C(N1CCNCC1)=Nc1ccccc1O2 [Amoxapine]
[1]; [6]
  Q (charge class): +
[2]; no efflux inhibition
  obs–calc (log Po^in situ): −0.4
[3]
  log PABL: −3.26
  log Po: −2.37
  log Ppara: −5.98
  Pm^7.4: 289

## Cc1cc(=O)n(-c2ccccc2)n1C [Antipyrine]
[1]
  Q (charge class): 0
[3]
  log PABL: −4.46
  log Po: −6.14
  log Ppara: −6.86

## CNCC[C@@H](Oc1ccccc1C)c1ccccc1 [Atomoxetine]
[1]; [6]
  Q (charge class): +
[4]
  pKa: 9.67
[2]; no efflux inhibition
  obs–calc (log Po^in situ): 0.5
[3]
  log PABL: −3.01
  log Po: −1.83
  log Ppara: −6.10

## CC(NC(C)(C)C)C(=O)c1cccc(Cl)c1 (stereo not drawn) [Bupropion]
[1]; [6]
  Q (charge class): +
[2]; no efflux inhibition
  obs–calc (log Po^in situ): 0.9
[3]
  Pm^7.4: 101

## Cn1c(=O)c2c(ncn2C)n(C)c1=O [Caffeine]
[1]; [6]
  Q (charge class): 0
[3]
  Pm^7.4: 1

## NC(=O)N1c2ccccc2C=Cc2ccccc21 [Carbamazepine]
[1]; [6]
  Q (charge class): 0
[2]; efflux inhibition mdr1a(−/−)
  obs–calc (log Po^in situ): 0.6
[3]
  log PABL: −3.25
  log Ppara: −6.09
  Pm^7.4: 29

## O=C(O)COCCN1CCN(C(c2ccccc2)c2ccc(Cl)cc2)CC1 (stereo not drawn) [Cetirizine]
[1]; [6]
  Q (charge class): ±

## CN(C)CCCN1c2ccccc2Sc2ccc(Cl)cc21 [Chlorpromazine]
[1]; [6]
  Q (charge class): +
[2]; efflux inhibition mdr1a(−/−)
  obs–calc (log Po^in situ): 0.2
[2]; no efflux inhibition
  obs–calc (log Po^in situ): 0.0 and 0.2
[3]
  log PABL: −3.10
  log Po: −1.46
  log Ppara: −5.96
  Pm^7.4: 496

## CN(C)CCCC1(c2ccc(F)cc2)OCc2cc(C#N)ccc21 (stereo not drawn) [Citalopram]
[1]; [6]
  Q (charge class): +
[3]
  Pm^7.4: 99

## CN1CCN(C2=Nc3cc(Cl)ccc3Nc3ccccc32)CC1 [Clozapine]
[1]; [6]
  Q (charge class): +
[2]; efflux inhibition mdr1a(−/−)
  obs–calc (log Po^in situ): −0.5
[3]
  log PABL: −3.37
  log Po: −2.58
  log Ppara: −5.74
  Pm^7.4: 632

## COc1cc2c(c(OC)c1OC)-c1ccc(OC)c(=O)cc1[C@@H](NC(C)=O)CC2 [Colchicine]
[1]
  Q (charge class): 0

## C[C@]12C[C@H](O)[C@H]3[C@@H](CCC4=CC(=O)CC[C@@]43C)[C@@H]1CC[C@@H]2C(=O)CO [Corticosterone]
[1]; [6]
  Q (charge class): 0

## CN1C(=O)CN=C(c2ccccc2)c2cc(Cl)ccc21 [Diazepam]
[1]
  Q (charge class): 0

## C[C@H]1O[C@@H](O[C@H]2[C@@H](O)C[C@H](O[C@H]3[C@@H](O)C[C@H](O[C@H]4CC[C@@]5(C)[C@H](CC[C@@H]6[C@@H]5C[C@@H](O)[C@]5(C)[C@@H](C7=CC(=O)OC7)CC[C@]65O)C4)O[C@@H]3C)O[C@@H]2C)C[C@H](O)[C@@H]1O [Digoxin]
[1]
  Q (charge class): 0

## COc1ccc([C@@H]2Sc3ccccc3N(CCN(C)C)C(=O)[C@@H]2OC(C)=O)cc1 [Diltiazem]
[1]; [6]
  Q (charge class): +

## CN(C)CCOC(c1ccccc1)c1ccccc1 [Diphenhydramine]
[1]; [6]
  Q (charge class): +

## OCCN(CCO)c1nc(N2CCCCC2)c2nc(N(CCO)CCO)nc(N3CCCCC3)c2n1 [Dipyridamole]
[1]; [6]
  Q (charge class): 0

## CCC1(C)CC(=O)NC1=O (stereo not drawn) [Ethosuximide]
[1]; [6]
  Q (charge class): 0
[4]
  pKa: 9.18
[2]; no efflux inhibition
  obs–calc (log Po^in situ): 0.2
[3]
  log Po: −5.83
  log Ppara: −6.87
  Pm^7.4: 1.5

## COc1cc([C@@H]2c3cc4c(cc3[C@@H](O[C@@H]3O[C@@H]5CO[C@@H](C)O[C@H]5[C@H](O)[C@H]3O)[C@H]3COC(=O)[C@H]23)OCO4)cc(OC)c1O [Etoposide]
[1]; [6]
  Q (charge class): 0
[2]; efflux inhibition mdr1a(−/−)
  obs–calc (log Po^in situ): 0.1
[2]; no efflux inhibition
  obs–calc (log Po^in situ): −0.1
[3]
  log PABL: −4.62
  log Po: −6.17
  log Ppara: −6.85
  Pm^7.4: 0.6

## CC(C)(C(=O)O)c1ccc(C(O)CCCN2CCC(C(O)(c3ccccc3)c3ccccc3)CC2)cc1 (stereo not drawn) [Fexofenadine]
[1]; [6]
  Q (charge class): ±

## OCCN1CCN(CCCN2c3ccccc3Sc3ccc(C(F)(F)F)cc32)CC1 [Fluphenazine]
[1]; [6]
  Q (charge class): +
[4]
  pKa: 7.76
[2]; no efflux inhibition
  obs–calc (log Po^in situ): −1.0
[3]
  log PABL: −3.24
  log Po: −2.36
  log Ppara: −5.54
  Pm^7.4: 1326

## COc1ccc(Cl)cc1C(=O)NCCc1ccc(S(=O)(=O)NC(=O)NC2CCCCC2)cc1 [Glibenclamide]
[5]
  Pm^7.4: 15
[1]; [6]
  Q (charge class): −

## O=C(CCCN1CCC(O)(c2ccc(Cl)cc2)CC1)c1ccc(F)cc1 [Haloperidol]
[1]; [6]
  Q (charge class): +
[2]; no efflux inhibition
  obs–calc (log Po^in situ): −0.3
[3]
  log PABL: −3.38
  log Po: −2.06
  log Ppara: −4.68
  Pm^7.4: 464

## C[C@]12CCC(=O)C=C1CC[C@@H]1[C@@H]2[C@@H](O)C[C@@]2(C)[C@H]1CC[C@]2(O)C(=O)CO [Hydrocortisone]
[1]; [6]
  Q (charge class): 0

## CC(C)Cc1ccc(C(C)C(=O)O)cc1 (stereo not drawn) [Ibuprofen]
[1]; [6]
  Q (charge class): −

## COc1ccc2c(c1)c(CC(=O)O)c(C)n2C(=O)c1ccc(Cl)cc1 [Indomethacin]
[1]; [6]
  Q (charge class): −
[3]
  log PABL: −2.67
  log Po: −2.67
  log Ppara: −5.68
  Pm^7.4: 3

## Nc1nnc(-c2cccc(Cl)c2Cl)c(N)n1 [Lamotrigine]
[4]
  pKa: 5.38

## CCN(CC)CC(=O)Nc1c(C)cccc1C [Lidocaine]
[1]; [6]
  Q (charge class): +

## CC[C@H](C)C(=O)O[C@H]1C[C@@H](C)C=C2C=C[C@H](C)[C@H](CC[C@@H](O)C[C@@H](O)CC(=O)O)[C@H]21 [Lovastatin Acid]
[1]; [6]
  Q (charge class): −

## CN1CCN(C2=Nc3ccccc3Oc3ccc(Cl)cc32)CC1 [Loxapine]
[4]
  pKa: 7.78
[3]
  Pm^7.4: 829

## CNCCCC12CCC(c3ccccc31)c1ccccc12 [Maprotiline]
[1]; [6]
  Q (charge class): +
[2]; no efflux inhibition
  obs–calc (log Po^in situ): 0.2
[3]
  log PABL: −3.21
  log Po: −0.56
  log Ppara: −5.51
  Pm^7.4: 311

## CCN(CC)CCNC(=O)c1cc(Cl)c(N)cc1OC [Metoclopramide]
[1]; [6]
  Q (charge class): +
[3]
  Pm^7.4: 380

## CN1CCN2c3ncccc3Cc3ccccc3C2C1 (stereo not drawn) [Mirtazapine]
[1]; [6]
  Q (charge class): 0
[4]
  pKa: 7.91
[2]; no efflux inhibition
  obs–calc (log Po^in situ): −0.2
[3]
  log PABL: −3.37
  log Po: −2.61
  log Ppara: −5.87
  Pm^7.4: 579

## CN1CC[C@]23c4c5ccc(O)c4O[C@H]2[C@@H](O)C=C[C@H]3[C@H]1C5 [Morphine]
[1]
  Q (charge class): +

## COc1ccc2cc([C@H](C)C(=O)O)ccc2c1 [Naproxen]
[1]; [6]
  Q (charge class): −

## COc1ccc2c3c1O[C@H]1C(=O)CC[C@@]4(O)[C@@H](C2)N(C)CC[C@]314 [Oxycodone]
[1]
  Q (charge class): +
[4]
  pKa: 9

## CC(=O)O[C@H]1C(=O)[C@@]2(C)[C@H]([C@H](OC(=O)c3ccccc3)[C@]3(O)C[C@H](OC(=O)[C@H](O)[C@@H](NC(=O)c4ccccc4)c4ccccc4)C(C)=C1C3(C)C)[C@]1(OC(C)=O)CO[C@@H]1C[C@@H]2O [Paclitaxel]
[1]; [6]
  Q (charge class): 0
[2]; [7]
  obs–calc (log Po^in situ): −1.9

## CCCN1C[C@H](CSC)C[C@@H]2c3cccc4[nH]cc(c34)C[C@H]21 [Pergolide]
[1]; [6]
  Q (charge class): +
[4]
  pKa: 9.45
[2]; no efflux inhibition
  obs–calc (log Po^in situ): 0.4
[3]
  log PABL: −3.25
  log Po: −1.45
  log Ppara: −6.20
  Pm^7.4: 315

## OCCN1CCN(CCCN2c3ccccc3Sc3ccc(Cl)cc32)CC1 [Perphenazine]
[1]; [6]
  Q (charge class): +
[2]; [7]
  obs–calc (log Po^in situ): −0.9
[3]
  log PABL: −3.42
  log Po: −1.66
  log Ppara: −5.64
  Pm^7.4: 1612

## O=C1NC(=O)C(c2ccccc2)(c2ccccc2)N1 [Phenytoin]
[1]; [6]
  Q (charge class): 0
[2]; efflux inhibition mdr1a(−/−)
  obs–calc (log Po^in situ): −0.3
[2]; no efflux inhibition
  obs–calc (log Po^in situ): −0.4 and −0.3 and −0.2
[3]
  log PABL: −4.51
  log Po: −4.34
  log Ppara: −6.93
  Pm^7.4: 41

## CC(=O)[C@H]1CC[C@H]2[C@@H]3CCC4=CC(=O)CC[C@]4(C)[C@H]3CC[C@]12C [Progesterone]
[1]; [6]
  Q (charge class): 0
[2]; [7]
  obs–calc (log Po^in situ): −0.6
[3]
  log PABL: −3.25
  log Po: −3.58
  log Ppara: −6.20
  Pm^7.4: 263

## CC(C)NCC(O)COc1cccc2ccccc12 (stereo not drawn) [Propranolol]
[1]; [6]
  Q (charge class): +
[3]
  Pm^7.4: 87

## C=C[C@H]1C[N@@]2CC[C@H]1C[C@H]2[C@H](O)c1ccnc2ccc(OC)cc12 [Quinine]
[1]; [6]
  Q (charge class): +

## Cc1nc2n(c(=O)c1CCN1CCC(c3noc4cc(F)ccc34)CC1)CCCC2 [Risperidone]
[1]
  Q (charge class): +
[2]
  obs–calc (log Po^in situ): 0.8

## CC(C)(C)NC(=O)[C@@H]1C[C@@H]2CCCC[C@@H]2CN1C[C@@H](O)[C@H](Cc1ccccc1)NC(=O)[C@H](CC(N)=O)NC(=O)c1ccc2ccccc2n1 [Saquinavir]
[5]
  log Po: −3.82
  Pm^7.4: 114
[1]; [6]
  Q (charge class): 0
[2]; [7]
  obs–calc (log Po^in situ): −0.1
[2]; efflux inhibition mdr1a(−/−)
  obs–calc (log Po^in situ): 0.5

## CN[C@H]1CC[C@@H](c2ccc(Cl)c(Cl)c2)c2ccccc21 [Sertraline]
[1]; [6]
  Q (charge class): +
[4]
  pKa: 9.2

## C[C@]12CC[C@H]3[C@@H](CCC4=CC(=O)CC[C@@]43C)[C@@H]1CC[C@@H]2O [Testosterone]
[1]
  Q (charge class): 0

## Cn1cnc2c1c(=O)[nH]c(=O)n2C [Theobromine]
[1]; [6]
  Q (charge class): 0
[2]; [7]
  obs–calc (log Po^in situ): 1.1
[3]
  log PABL: −4.45
  log Po: −8.00
  log Ppara: −6.94
  Pm^7.4: 0.01

## Cn1c(=O)c2[nH]cnc2n(C)c1=O [Theophylline]
[1]
  Q (charge class): 0

## CCCCNC(=O)NS(=O)(=O)c1ccc(C)cc1 [Tolbutamide]
[1]; [6]
  Q (charge class): −

## [D-Pen^2,5]-Enkephalin [DPDPE]
[1]
  Q (charge class): ±
